The values below come from ChEMBL document CHEMBL3763049, “Discovery of aminoquinazoline derivatives as human A(2A) adenosine receptor antagonists” (Bioorg Med Chem Lett, 2016).

The target of data set [1] is Adenosine receptor A2a (Rattus norvegicus, UniProt P30543). The data set can be described thus: Binding affinity to rat A2A adenosine receptor.
In another data set the target is T1, Adenosine receptor A1 (Homo sapiens, UniProt P30542).
T1 sequence (P30542 whole entry): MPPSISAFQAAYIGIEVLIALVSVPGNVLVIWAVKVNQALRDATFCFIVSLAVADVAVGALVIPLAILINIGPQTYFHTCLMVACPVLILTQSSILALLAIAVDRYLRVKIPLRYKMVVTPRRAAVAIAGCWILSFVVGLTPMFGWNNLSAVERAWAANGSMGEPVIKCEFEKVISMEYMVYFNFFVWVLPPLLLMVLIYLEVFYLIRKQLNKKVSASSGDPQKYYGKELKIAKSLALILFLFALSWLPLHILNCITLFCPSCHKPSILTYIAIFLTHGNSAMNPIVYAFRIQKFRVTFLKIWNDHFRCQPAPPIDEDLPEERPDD
Description: Displacement of [3H]DPCPX from human adenosine A1 receptor expressed in CHO cell membranes after 60 mins by microplate scintillation counting analysis. (In general: Displacement assays read how much labelled ligand stays bound in the presence of the test substance.)

Data set [2] deals with Rattus norvegicus. Description: Anti-cataleptic activity in Sprague-Dawley rat assessed as inhibition of haloperidol-induced catalepsy at 30 mg/kg, po administered for 1 hr. The format is functional.
The target in data set [3] is Adenosine receptor A2a (Homo sapiens, UniProt P29274). Description: Displacement of [3H]SCH-58261 from human adenosine A2A receptor expressed in HEK cell membranes after 60 mins by microplate scintillation counting analysis. Also on record: species or system HEK293.
Chain of Adenosine receptor A2a (Homo sapiens, UniProt P29274) (P29274 whole entry): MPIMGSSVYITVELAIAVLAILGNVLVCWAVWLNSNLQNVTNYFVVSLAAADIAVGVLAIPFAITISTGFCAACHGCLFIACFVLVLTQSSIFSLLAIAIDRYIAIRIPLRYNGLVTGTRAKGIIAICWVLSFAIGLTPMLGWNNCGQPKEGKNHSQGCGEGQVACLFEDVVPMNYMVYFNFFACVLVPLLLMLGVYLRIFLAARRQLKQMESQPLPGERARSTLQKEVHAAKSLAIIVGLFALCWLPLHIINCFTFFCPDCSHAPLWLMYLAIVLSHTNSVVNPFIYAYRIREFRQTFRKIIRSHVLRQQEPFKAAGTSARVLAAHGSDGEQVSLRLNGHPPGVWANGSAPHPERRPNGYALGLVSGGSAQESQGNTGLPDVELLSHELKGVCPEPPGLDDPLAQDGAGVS
Data set [4] concerns Rattus norvegicus. Description: Anti-cataleptic activity in Sprague-Dawley rat assessed as inhibition of haloperidol-induced catalepsy at 10 mg/kg, po administered for 1 hr. The format is functional.
Data set [5] in a line: AUC in haloperidol-induced Sprague-Dawley rat cataleptic model at 10 mg/kg, po administered for 1 hr. The format is ADME, organism-based. The note with it: in vivo.
A short description of data set [6]: AUC in haloperidol-induced Sprague-Dawley rat cataleptic model at 30 mg/kg, po administered for 1 hr. The format is ADME, organism-based. The note with it: in vivo.
Data set [7] can be described thus: Solubility of compound at pH 7. It is filed as physicochemical. The following applies: buffer.

The structures appear in SMILES notation. Values after ≈ are worked out from the molar mass of the structure shown.

Chain of Adenosine receptor A2a (Rattus norvegicus, UniProt P30543) (P30543 whole entry): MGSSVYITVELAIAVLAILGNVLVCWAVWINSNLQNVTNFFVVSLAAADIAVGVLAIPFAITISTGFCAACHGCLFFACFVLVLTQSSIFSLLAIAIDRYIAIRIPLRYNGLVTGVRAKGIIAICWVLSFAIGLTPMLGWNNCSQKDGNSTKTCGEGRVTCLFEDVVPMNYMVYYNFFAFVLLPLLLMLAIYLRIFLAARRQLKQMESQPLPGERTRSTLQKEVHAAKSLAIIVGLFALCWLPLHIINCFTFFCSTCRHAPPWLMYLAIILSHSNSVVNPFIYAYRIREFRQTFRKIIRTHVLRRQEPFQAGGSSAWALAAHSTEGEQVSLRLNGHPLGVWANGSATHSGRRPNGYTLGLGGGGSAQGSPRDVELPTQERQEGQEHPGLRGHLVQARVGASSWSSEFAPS

What is called Ki is a dissociation constant, usually derived from enzyme kinetics or from competition with a known ligand. Usually inhibition in vivo stands for the change of the read-out against control, counted positive when it falls. As to `Nc1nc(C(=O)NCc2cccc3cccnc23)c2cccc(C(F)(F)F)c2n1`, the inhibitory constant (Ki) at Adenosine receptor A2a [1] (read-out: Ki) was 0.057 µM; at Adenosine receptor A1, 1.3 µM. Also, the inhibition in vivo at 30 mg/kg in the data set with Rattus norvegicus [2] is 0%.
As for `Cc1cccc(CNC(=O)c2nc(N)nc3c(F)cccc23)c1`, the inhibitory constant (Ki) at Adenosine receptor A2a [3] was found to be 0.0084 µM; at Adenosine receptor A1 it was 0.112 µM.
For `Nc1nc(C(=O)NCCc2ccccn2)c2cccc(F)c2n1` the same measures were 0.014 µM and 0.6 µM.
In the case of `COc1ccnc2c(CNC(=O)c3nc(N)nc4c(F)cccc34)cccc12`, the values for the inhibition constant (Ki) at Adenosine receptor A2a [3], on Adenosine receptor A2a [1] (read-out: Ki) and on Adenosine receptor A1 were 0.0152 µM, 0.0013 µM and 0.069 µM, respectively.
Regarding `Nc1nc(C(=O)NCc2cccc3c2OCCN3)c2cccc(F)c2n1`, the Ki on Adenosine receptor A2a [3] was 0.0215 µM; on Adenosine receptor A1 it was 0.135 µM.
With `Nc1nc(C(=O)NCc2cccc3cc(C(=O)N4CCN(c5ccccn5)CC4)cnc23)c2cccc(F)c2n1`, the results for the inhibition constant Ki on Adenosine receptor A2a [3], at Adenosine receptor A2a [1] (read-out: Ki) and at Adenosine receptor A1 were 0.0027 µM, 0.0125 µM and 0.11 µM, respectively.
As to `N#Cc1cccc2c(C(=O)NCc3cccc4cccnc34)nc(N)nc12`, the Ki came out at 0.024 µM on Adenosine receptor A2a [3] and 0.337 µM at Adenosine receptor A1.
Regarding `CCCCOc1ccnc2c(CNC(=O)c3nc(N)nc4c(F)cccc34)cccc12`, the Ki at Adenosine receptor A2a [3] was 0.245 µM; on Adenosine receptor A2a [1], “Not Active”; at Adenosine receptor A1 it was 0.748 µM.
In the case of `C[C@H](NC(=O)c1nc(N)nc2c(F)cccc12)c1cccc2cccnc12`, the Ki amounted to 0.126 µM on Adenosine receptor A2a [3] and 0.524 µM on Adenosine receptor A1.
What is called AUC is concentration integrated over time. High values mean more exposure, low ones less exposure. Consider `Nc1nc(C(=O)NCc2cccc3cccnc23)c2ccc(F)cc2n1`, for which the inhibitory constant (Ki) at Adenosine receptor A2a [3] turned out to be 0.0003 µM; at Adenosine receptor A2a [1] (read-out: Ki), 0.0048 µM; at Adenosine receptor A1 it was 0.031 µM. The inhibition in vivo at 10 mg/kg in the data set with Rattus norvegicus [4] stood at 39%. The molecule also came in with an exposure (AUC) at 1 h in data set [5] of 2.3 µM·h.
For the molecule `C[C@@H](NC(=O)c1nc(N)nc2c(F)cccc12)c1cccc2cccnc12`, the affinity at Adenosine receptor A1 corresponds to a Ki of 0.057 µM.
`CSc1cccc2c(C(=O)NCc3cccc4cccnc34)nc(N)nc12`: the values for the Ki at Adenosine receptor A2a [1] (read-out: Ki) and on Adenosine receptor A1 were 0.012 µM and 0.132 µM, respectively. The molecule further registered an AUC at 1 h in data set [6] of 8.9 µM·h. Moreover, the inhibition in vivo at 30 mg/kg in the data set on Rattus norvegicus [2] was found to be 0%.
For `Nc1nc(C(=O)NCc2cccc3c(C(=O)N4CCN(c5ccccc5)CC4)ccnc23)c2cccc(F)c2n1`, the figures for the Ki at Adenosine receptor A2a [3] and on Adenosine receptor A1 were 1.54 µM and 6 µM, respectively.
In the case of `Nc1nc(C(=O)NCc2cccc3cccnc23)c2cccc(Br)c2n1`, at Adenosine receptor A1, the Ki is 0.01 µM.
In the case of `CN(CCCc1ccccn1)C(=O)c1cnc2c(CNC(=O)c3nc(N)nc4c(F)cccc34)cccc2c1`, the results for the inhibition constant Ki on Adenosine receptor A2a [3] and at Adenosine receptor A1 were 0.012 µM and 0.21 µM, respectively.
Take `Nc1nc(C(=O)NCc2cccc3cc(C(=O)N4CCCc5ccccc54)cnc23)c2cccc(F)c2n1`: the Ki on Adenosine receptor A2a [3] was 0.0044 µM; at Adenosine receptor A1 it was 0.16 µM.
Turning to `Nc1nc(C(=O)NCc2cccc3c2OCCO3)c2cccc(F)c2n1`, the Ki on Adenosine receptor A2a [3] was found to be 0.02 µM; on Adenosine receptor A1, 0.103 µM.
For `CS(=O)(=O)c1cccc2c(C(=O)NCc3cccc4cccnc34)nc(N)nc12`, the figures for the Ki on Adenosine receptor A2a [1] (read-out: Ki) and at Adenosine receptor A1 were 0.302 µM and 4.74 µM, respectively.
With `Nc1nc(C(=O)NCc2cccc3cccnc23)c2cccc(I)c2n1`, the inhibition constant Ki at Adenosine receptor A2a [3] is 0.0031 µM; at Adenosine receptor A1, 0.033 µM. In addition, the inhibition in vivo at 10 mg/kg in the data set on Rattus norvegicus [4] turned out to be 23%. Besides, in data set [5], the AUC at 1 h is 1.3 µM·h.
With `Nc1nc(C(=O)NCc2cncc3ccccc23)c2cccc(F)c2n1`, the values for the inhibition constant (Ki) at Adenosine receptor A2a [3] and on Adenosine receptor A1 were 0.0267 µM and 0.078 µM, respectively.
For `Nc1nc(C(=O)NCCc2ccccc2)c2cccc(F)c2n1` the same measures were 0.16 µM and 0.559 µM.
For `Nc1nc(C(=O)NCc2cccc3cccnc23)c2cc(F)c(F)cc2n1` the same measures were 0.0036 µM and 0.04 µM.
On the same counts, the results for `Nc1nc(C(=O)NCc2cccc3cccnc23)c2cc(Cl)cc(Cl)c2n1` are 0.0066 µM and 0.05 µM.
Regarding `Nc1nc(C(=O)NCc2cccc3[nH]cnc23)c2cccc(F)c2n1`, the inhibition constant Ki is 0.025 µM at Adenosine receptor A2a [3] and 0.281 µM on Adenosine receptor A1.
For `Nc1nc(C(=O)NCc2cccc3cccnc23)c2cccc(Cl)c2n1`, the Ki worked out at 0.0029 µM on Adenosine receptor A2a [1] (read-out: Ki) and 0.213 µM at Adenosine receptor A1. Besides, the inhibition in vivo at 30 mg/kg in the data set with Rattus norvegicus [2] was determined as 35%.
Consider `Nc1nc(C(=O)NCc2cccc3cccnc23)c2cc(F)ccc2n1`, for which the inhibitory constant (Ki) at Adenosine receptor A2a [3] came out at 0.0044 µM; at Adenosine receptor A2a [1] (read-out: Ki), 0.0087 µM; at Adenosine receptor A1, 0.346 µM. In the data set with Rattus norvegicus [4], the inhibition in vivo at 10 mg/kg amounted to 55%. The same molecule returned an AUC at 1 h in data set [5] of 0.8 µM·h.
As to `Nc1nc(C(=O)NCc2cccc3c2NCCC3)c2cccc(F)c2n1`, the Ki came to 0.0076 µM at Adenosine receptor A2a [3] and 0.213 µM on Adenosine receptor A1.
For `Nc1nc(C(=O)NCc2ccc3ccccc3n2)c2cccc(F)c2n1` the same measures were 0.015 µM and 0.078 µM.
As to `COCCOc1ccc(N2CCN(C(=O)c3cnc4c(CNC(=O)c5nc(N)nc6c(F)cccc56)cccc4c3)CC2)cc1`, the figures for the Ki on Adenosine receptor A2a [3], at Adenosine receptor A2a [1] (read-out: Ki) and on Adenosine receptor A1 were 0.0048 µM, 0.0114 µM and 0.12 µM, respectively.
For `Nc1nc(C(=O)NCc2ccccc2)c2cccc(F)c2n1`, the inhibition constant (Ki) at Adenosine receptor A2a [3] amounted to 0.0054 µM; at Adenosine receptor A1, 0.083 µM.
For `CCn1cnc2c(CNC(=O)c3nc(N)nc4c(F)cccc34)cccc21` the same measures were 0.0031 µM and 0.024 µM.
On the same counts, the results for `Cc1ccccc1CNC(=O)c1nc(N)nc2c(F)cccc12` are 0.0136 µM and 0.116 µM.
For `Cn1nccc1-c1cccc2c(C(=O)NCc3cccc4cccnc34)nc(N)nc12` the same measures were 1.03 µM and 6.04 µM.
In the case of `CCOc1ccnc2c(CNC(=O)c3nc(N)nc4c(F)cccc34)cccc12`, the inhibition constant (Ki) on Adenosine receptor A2a [3] stood at 0.0732 µM; at Adenosine receptor A1 it was 0.252 µM.
For `Nc1nc(C(=O)NCc2cccc3cccnc23)c2cccc(-c3cncnc3)c2n1` the same measures were 0.16 µM and 6.3 µM.
As to `Nc1nc(C(=O)NCc2cccc3cc[nH]c23)c2cccc(F)c2n1`, the values for the inhibition constant Ki at Adenosine receptor A2a [3] and on Adenosine receptor A1 were 0.0082 µM and 0.054 µM, respectively.
Turning to `Nc1nc(C(=O)NCc2cccc3c2C(=O)NC3)c2cccc(F)c2n1`, the Ki at Adenosine receptor A2a [3] is 0.0018 µM; at Adenosine receptor A1, 0.0054 µM.
On the same counts, the results for `Nc1nc(C(=O)NCc2nccc3ccccc23)c2cccc(F)c2n1` are 0.0067 µM and 0.084 µM.
Turning to `Nc1nc(C(=O)NCc2cccc3cccnc23)c2cccc(OC(F)(F)F)c2n1`, the inhibition constant (Ki) on Adenosine receptor A2a [1] (read-out: Ki) turned out to be 0.0029 µM; at Adenosine receptor A1, 0.02 µM. In addition, in the data set with Rattus norvegicus [2], the inhibition in vivo at 30 mg/kg stood at 0%.
For orientation: solubility means how much of the substance goes into solution per volume. Consider `Nc1cc(C(=O)NCc2cccc3cccnc23)c2ccccc2n1`, for which the Ki was 0.836 µM at Adenosine receptor A2a [3] and 17.6 µM on Adenosine receptor A1. In data set [7], this molecule yielded a solubility of 19 µM (≈ 6.24 µg/mL).
For `Nc1nc(C(=O)NCc2ccnc3ccccc23)c2cccc(F)c2n1`, the Ki on Adenosine receptor A2a [3] turned out to be 0.927 µM; on Adenosine receptor A1, 10 µM.
As to `Nc1nc(C(=O)NCc2cccc3cc(C(=O)NCCCCCc4ccccc4)cnc23)c2cccc(F)c2n1`, the results for the Ki on Adenosine receptor A2a [3] and on Adenosine receptor A1 were 0.0069 µM and 0.16 µM, respectively.
Regarding `Nc1nc(C(=O)NCc2cccc3ccccc23)c2cccc(F)c2n1`, the figures for the Ki at Adenosine receptor A2a [3] and on Adenosine receptor A1 were 0.0101 µM and 0.09 µM, respectively.
For `Nc1nc(C(=O)NCC2CCCCC2)c2cccc(F)c2n1` the same measures were 0.045 µM and 0.17 µM.
In the case of `COc1cccc2c(C(=O)NCc3cccc4cccnc34)nc(N)nc12`, the Ki stood at 0.0006 µM on Adenosine receptor A2a [1] (read-out: Ki) and 0.006 µM at Adenosine receptor A1. The molecule further returned an exposure (AUC) at 1 h in data set [6] of 0.8 µM·h. Besides, the inhibition in vivo at 30 mg/kg in the data set with Rattus norvegicus [2] was 31%.
